Assay results taken from patent US20240309016A1, “MACROCYCLIC HETEROCYCLE COMPOUNDS AND USE THEREOF” (TAKEDA PHARMACEUTICAL COMPANY LIMITED, priority 2023, published 2024).

What follows are compounds tested against T1, human OX2 receptor (Homo sapiens, UniProt O43614) (assay: Measurement of orexin type 2 receptor agonist activity (Experimental Example 2; Fluo-4 AM calcium fluorescence, FDSS μCELL)). Settings: compound at 3 μM; CHO cells expressing human OX2 receptor; DMSO = 0%, 10 nM orexin A (human) = 100%.
T1 construct: expressed in transfected cells
T1 sequence (O43614 1-444): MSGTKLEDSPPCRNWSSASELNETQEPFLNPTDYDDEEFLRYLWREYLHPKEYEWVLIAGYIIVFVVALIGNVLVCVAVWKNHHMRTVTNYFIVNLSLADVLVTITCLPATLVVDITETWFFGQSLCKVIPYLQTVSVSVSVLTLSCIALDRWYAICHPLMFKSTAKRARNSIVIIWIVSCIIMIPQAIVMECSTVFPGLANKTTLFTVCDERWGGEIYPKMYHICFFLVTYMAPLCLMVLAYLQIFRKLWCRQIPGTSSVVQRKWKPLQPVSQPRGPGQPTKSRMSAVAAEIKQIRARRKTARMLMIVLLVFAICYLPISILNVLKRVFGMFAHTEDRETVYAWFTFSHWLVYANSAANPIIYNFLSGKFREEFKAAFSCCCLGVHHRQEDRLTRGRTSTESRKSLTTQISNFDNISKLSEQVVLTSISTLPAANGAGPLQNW
Format: cell-based
Method: In order to obtain cell clones that stably express human orexin type 2 receptor, human orexin type 2 (residues 1-444, NCBI Reference Sequence: AK314279) was constructed in a pcDNA3.1 (+) vector (Invitrogen) to express in mammalian cells. This plasmid DNA was transfected into CHO-K1 cells by electroporation, and stable clones were obtained by limiting dilution using resistance to G418 as a selection marker.
CHO cells in which human OX2 receptor was forcibly expressed were seeded at 10,000 cells/well into a 384-well black transparent bottom plate (BD falcon), and were incubated at 37° C., 5% CO2 for 1 day after incubation at room temperature for 30 minutes. After removing the cell plate medium, assay buffer containing calcium indicator A (HBSS (Thermo Fisher Scientific), 20 mM HEPES (Thermo Fisher Scientific), 0.1% BSA (Sigma-Aldrich), 2.5 μg/mL Fluo-4 AM (Dojin Kagaku), 0.08% Pluronic F127 (Dojin Kagaku), 1.25 mM probenecid (Dojin Kagaku)) was added at 30 μL/well. After incubation in a 5% CO2 incubator at 37° C. for 30 minutes, it was incubated at room temperature for another 30 minutes. Add 10 μL/well of the test compound diluted with assay buffer B (HBSS, 20 mM HEPES, 0.1% BSA), and use FDSS μCELL (Hamamatsu Photonics) to measure the fluorescence value every 1 second for 1 minute, and then every 2 seconds for 1 minute. It was measured for 1 minute and 40 seconds. The amount of fluorescence value when DMSO is added instead of the test compound is defined as 0%, and the amount of fluorescence value when orexin A (human) (Peptide Institute) with a final concentration of 10 nM is added is defined as 100%. The activity (%) of the test compound was calculated. Table 2-1, 2-2, 2-3, and 2-4 show the activity of each compound at a concentration of 3 μM.

Compound	OX2R agonist activity (3 μM, %)
CCS(=O)(=O)N[C@H]1[C@@H](F)CN2C(=O)COc3ccc(Cl)c(n3)Oc3cc(ccc3F)C[C@@H]12 (relative stereo) [Example 91, N-[rel-(15aR,16S,17R)-7-chloro-11,17-difluoro-1-oxo-1,2,15a,16,17,18-hexahydro-15H-4,8-(azeno)-14,10-(metheno)pyrrolo[1,2-d][1,12,4]dioxazacyclohepta-decin-16-yl]ethanesulfonamide (optical isomer)]	106%
CCS(=O)(=O)N[C@@H]1[C@@H]2Cc3cccc(c3F)Oc3nc(cnc3C)OCC(=O)N2CC1(F)F [Example 81, N-[(15aS,16R)-17,17,20-trifluoro-7-methyl-1-oxo-1,2,15a,16,17,18-hexahydro-15H-4,8-(azeno)-10,14-(metheno)pyrrolo[1,2-j][1,7,4,10]dioxadiazacyclo-heptadecin-16-yl]ethanesulfonamide]	102%
CS(=O)(=O)N[C@H]1[C@@H](F)CN2C(=O)NCc3ccc(Cl)c(c3)Oc3cccc(c3F)C[C@@H]12 [Example 12, N-[(15aS,16R,17S)-7-chloro-17,20-difluoro-1-oxo-2,3,15a,16,17,18-hexahydro-1H,15H-4,8:14,10-di(metheno)pyrrolo[1,2-j][1,8,10]oxadiazacyclo-heptadecin-16-yl]methanesulfonamide]	99%
CS(=O)(=O)N[C@@H]1[C@@H]2Cc3cccc(c3F)Oc3nc(ccc3Cl)CNC(=O)N2CC1(F)F [Example 14, N-[(15aS,16R)-7-chloro-17,17,20-trifluoro-1-oxo-2,3,15a,16,17,18-hexahydro-1H,15H-4,8-(azeno)-14,10-(metheno)pyrrolo[1,2-j][1,8,10]oxadiazacyclo-heptadecin-16-yl]methanesulfonamide]	99%
CCS(=O)(=O)N[C@H]1[C@@H](F)CN2C(=O)N(C)Cc3ccc(Cl)c(n3)Oc3cccc(c3)C[C@@H]12 [Example 70, N-[(15aS,16R,17S)-7-chloro-17-fluoro-2-methyl-1-oxo-2,3,15a,16,17,18-hexahydro-1H,15H-4,8-(azeno)-10,14-(metheno)pyrrolo[1,2-j][1,8,10]oxadiazacyclo-heptadecin-16-yl]ethanesulfonamide]	103%
Cc1cnc2nc1Oc1cccc(c1F)C[C@H]1[C@@H](NS(C)(=O)=O)C(F)(F)CN1C(=O)[C@@H]1C[C@@H](F)CN21 [Example 74, N-[(2R,16aS,17R,21aS)-2,18,18,22-tetrafluoro-8-methyl-21-oxo-2,3,16a,17,18,19,21,21a-octahydro-1H,16H-5,9-(azeno)-11,15-(metheno)dipyrrolo[1,2-g:1′,2′-j][1,5,7,10]oxatriazacyclo-heptadecin-17-yl]methanesulfonamide]	96%
CCS(=O)(=O)N[C@@H]1[C@@H]2Cc3cccc(c3F)Oc3nc(ccc3OC)CNC(=O)N2CC1(F)F [Example 26, N-[(15aS,16R)-17,17,20-trifluoro-7-methoxy-1-oxo-2,3,15a,16,17,18-hexahydro-1H,15H-4,8-(azeno)-10,14-(metheno)pyrrolo[1,2-j][1,8,10]oxadiazacyclo-heptadecin-16-yl]ethanesulfonamide]	102%
CS(=O)(=O)N[C@H]1[C@@H](F)CN2C(=O)OCc3ccc(C(F)F)c(n3)Oc3cccc(c3F)C[C@@H]12 [Example 38, N-[(15aS,16R,17S)-7-(difluoromethyl)-17,20-difluoro-1-oxo-15a,16,17,18-tetrahydro-1H,3H,15H-8,4-(azeno)-10,14-(metheno)pyrrolo[1,2-c][1,11,3]dioxazacyclo-heptadecin-16-yl]methanesulfonamide]	80%
Cc1ccc2nc1COc1cccc(c1F)C[C@H]1[C@@H](NS(C)(=O)=O)C(F)(F)CN1C(=O)CO2 [Example 66, N-[(16aS,17R)-18,18,21-trifluoro-7-methyl-1-oxo-1,2,16a,17,18,19-hexahydro-9H,16H-4,8-(azeno)-11,15-(metheno)pyrrolo[1,2-d][1,12,4]dioxazacyclo-octadecin-17-yl]methanesulfonamide]	97%
COCS(=O)(=O)N[C@@H]1[C@@H]2Cc3cccc(c3F)Oc3nc(ccc3C)CNC(=O)N2CC1(F)F [Example 46, 1-methoxy-N-[(15aS,16R)-17,17,20-trifluoro-7-methyl-1-oxo-2,3,15a,16,17,18-hexahydro-1H,15H-4,8-(azeno)-14,10-(metheno)pyrrolo[1,2-j][1,8,10]oxadiazacyclo-heptadecin-16-yl]methanesulfonamide]	99%
N-[(15aS,16R)-17,17- difluoro-7-methyl-1-oxo- 2,3,15a,16,17,18-hexahydro- 1H,15H-4,8-(azeno)-10,14- (metheno)pyrrolo[1,2- j][1,8,10]oxadiazacyclo- heptadecin-16- yl]ethanesulfonamide [Example 6]	99%
CCS(=O)(=O)N[C@H]1[C@@H](F)CN2C(=O)NCc3ccc(C(F)F)c(n3)Oc3cccc(c3F)C[C@@H]12 [Example 27, N-[(15aS,16R,17S)-7-(difluoromethyl)-17,20-difluoro-1-oxo-2,3,15a,16,17,18-hexahydro-1H,15H-8,4-(azeno)-10,14-(metheno)pyrrolo[1,2-j][1,8,10]oxadiazacyclo-heptadecin-16-yl]ethanesulfonamide]	102%
Cc1ccc2nc1Oc1cccc(c1F)C[C@H]1[C@@H](NS(=O)(=O)CF)C(F)(F)CN1C(=O)NC2 [Example 19, 1-fluoro-N-[(15aS,16R)-17,17,20-trifluoro-7-methyl-1-oxo-2,3,15a,16,17,18-hexahydro-1H,15H-4,8-(azeno)-10,14-(metheno)pyrrolo[1,2-j][1,8,10]oxadiazacyclo-heptadecin-16-yl]methanesulfonamide]	109%
CS(=O)(=O)N[C@@H]1[C@@H]2Cc3cccc(c3)Oc3nc(ccc3Cl)CNC(=O)N2CC1(F)F [Example 92, N-[(15aS,16R)-7-chloro-17,17-difluoro-1-oxo-2,3,15a,16,17,18-hexahydro-1H,15H-4,8-(azeno)-14,10-(metheno)pyrrolo[1,2-j][1,8,10]oxadiazacyclohepta-decin-16-yl]methanesulfonamide]	106%
CS(=O)(=O)N[C@@H]1[C@@H]2Cc3cccc(c3)Oc3nc(ccc3C(F)F)[C@@H]3C[C@@H]3C(=O)N2CC1(F)F (single isomer, unassigned) [Example 107]	108%
O=C1NCc2ccc(C(F)F)c(n2)Oc2cccc(c2F)C[C@H]2[C@@H](NS(=O)(=O)C3CC3)[C@@H](F)CN12 [Example 28, N-[(15aS,16R,17S)-7-(difluoromethyl)-17,20-difluoro-1-oxo-2,3,15a,16,17,18-hexahydro-1H,15H-8,4-(azeno)-10,14-(metheno)pyrrolo[1,2-j][1,8,10]oxadiazacyclo-heptadecin-16-yl]cyclopropanesulfonamide]	94%
CCS(=O)(=O)N[C@@H]1[C@@H]2Cc3cccc(c3)Oc3nc(ccc3Cl)CNC(=O)N2CC1(F)F (relative stereo) [Example 53, N-[rel-(15aR,16S)-7-chloro-17,17-difluoro-1-oxo-2,3,15a,16,17,18-hexahydro-1H,15H-4,8-(azeno)-14,10-(metheno)pyrrolo[1,2-j][1,8,10]oxadiazacyclo-heptadecin-16-yl]ethanesulfonamide (optical isomer)]	100%
CS(=O)(=O)N[C@H]1[C@@H](F)CN2C(=O)NCc3ccc(Cl)c(n3)Oc3cccc(c3F)C[C@@H]12 [Example 15, N-[(15aS,16R,17S)-7-chloro-17,20-difluoro-1-oxo-2,3,15a,16,17,18-hexahydro-1H,15H-4,8-(azeno)-14,10-(metheno)pyrrolo[1,2-j][1,8,10]oxadiazacyclo-heptadecin-16-yl]methanesulfonamide]	104%
CCS(=O)(=O)N[C@@H]1[C@@H]2Cc3cccc(c3F)Oc3nc(ccc3Cl)CNC(=O)N2CC1(F)F [Example 17, N-[(15aS,16R)-7-chloro-17,17,20-trifluoro-1-oxo-2,3,15a,16,17,18-hexahydro-1H,15H-4,8-(azeno)-14,10-(metheno)pyrrolo[1,2-j][1,8,10]oxadiazacyclo-heptadecin-16-yl]ethanesulfonamide]	100%
